The record followed here is patent US8207172B2 (Bayer Intellectual Property GmbH, priority 2004, dated 2012).

The test system of test [1] is A431 cells (human epidermoid carcinoma). Description: In vitro tumor cell proliferation assay (Cell Titer-Glo luminescent cell viability), A431. The class given is cell-based. The note with it: A-431, 72 h, 72 hours of drug exposure, ATP luminescence readout, read-out: IC50, anti-proliferative activity (inhibition of cell proliferation). Put shortly: (§1)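 Seeding density 2.5×10^3 cells/well; 72 h drug exposure at 37° C; endpoint CellTiter-Glo luminescence, reported as IC50.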

The subject of test [2] is BT474 (human breast carcinoma). Description: In vitro tumor cell proliferation assay (Cell Titer-Glo luminescent cell viability), BT474. The class given is cell-based. The note with it: BT-474, 72 h, BT474 cells, 72 hours of drug exposure, ATP luminescence readout, read-out: IC50, anti-proliferative activity (inhibition of cell proliferation). The gist of the method:
as §1

Structures can show the parent of a compound that is named as a salt.

With `CC(C)CCN1CCC(CCn2cc3c(n2)CCc2c-3sc3ncnc(Nc4ccc(OCc5cccc(F)c5)c(Cl)c4)c23)CC1` [Example 256, N-{3-chloro-4-[(3-fluorobenzyl)oxy]phenyl}-2-{2-[1-(3-methylbutyl)piperidin-4-yl]ethyl}-4,5-dihydro-2H-pyrimido[5′,4′:4,5]thieno[2,3-e]indazol-6-amine], the values for the IC50 in test [1] and in test [2] were ≤ 5 µM and ≤ 1 µM, respectively.

For the compound `OCC(O)CN1CCC(CCn2cc3c(n2)CCc2c-3sc3ncnc(Nc4ccc(OCc5cccc(F)c5)c(Cl)c4)c23)CC1` (centres unmarked) [Example 257, 3-(4-{2-[6-({3-chloro-4-[(3-fluorobenzyl)oxy]phenyl}amino)-4,5-dihydro-2H-pyrimido[5′,4′:4,5]thieno[2,3-e]indazol-2-yl]ethyl}piperidin-1-yl)propane-1,2-diol], the IC50 was ≤ 5 µM in test [1] and ≤ 1 µM in test [2].

On to `CS(=O)(=O)OCCn1ncc2c1CCc1c-2sc2ncnc(Nc3ccc(OCc4cccc(F)c4)c(Cl)c3)c12` [Example 258, 2-[6-({3-chloro-4-[(3-fluorobenzyl)oxy]phenyl}amino)-4,5-dihydro-3H-pyrimido[5′,4′:4,5]thieno[2,3-e]indazol-3-yl]ethyl methanesulfonate], for which the results for the IC50 in test [1] and in test [2] were ≤ 5 µM and ≤ 1 µM, respectively.

Regarding `Fc1cccc(COc2ccc(Nc3ncnc4sc5c(c34)CCc3c-5cnn3CCNCCN3CCOCC3)cc2Cl)c1` [Example 259, N-{3-chloro-4-[(3-fluorobenzyl)oxy]phenyl}-3-{2-[(2-morpholin-4-ylethyl)amino]ethyl}-4,5-dihydro-3H-pyrimido[5′,4′:4,5]thieno[2,3-e]indazol-6-amine], the IC50 in test [1] is ≤ 50 µM; in test [2] it was ≤ 5 µM.

In the case of `COCCN(CCOC)CCn1ncc2c1CCc1c-2sc2ncnc(Nc3ccc(OCc4cccc(F)c4)c(Cl)c3)c12` [Example 260, 3-{2-[bis(2-methoxyethyl)amino]ethyl}-N-{3-chloro-4-[(3-fluorobenzyl)oxy]phenyl}-4,5-dihydro-3H-pyrimido[5′,4′:4,5]thieno[2,3-e]indazol-6-amine], the IC50 in test [1] was ≤ 50 µM; in test [2] it was ≤ 5 µM.

With `COCCN(C)CCn1ncc2c1CCc1c-2sc2ncnc(Nc3ccc(OCc4cccc(F)c4)c(Cl)c3)c12` [Example 261, N-{3-chloro-4-[(3-fluorobenzyl)oxy]phenyl}-3-{2-[(2-methoxyethyl)(methyl)amino]ethyl}-4,5-dihydro-3H-pyrimido[5′,4′:4,5]thieno[2,3-e]indazol-6-amine], the IC50 is ≤ 50 µM in test [1] and ≤ 1 µM in test [2].

For `OCCN(CCO)CCn1ncc2c1CCc1c-2sc2ncnc(Nc3ccc(OCc4cccc(F)c4)c(Cl)c3)c12` [Example 262, 2,2′-({2-[6-({3-chloro-4-[(3-fluorobenzyl)oxy]phenyl}amino)-4,5-dihydro-3H-pyrimido[5′,4′:4,5]thieno[2,3-e]indazol-3-yl]ethyl}imino)diethanol], the IC50 in test [1] was ≤ 50 µM; in test [2], ≤ 1 µM.

For `Fc1cccc(COc2ccc(Nc3ncnc4sc5c(c34)CCc3c-5cnn3CCN3CCN(Cc4ccncc4)CC3)cc2Cl)c1` [Example 263, N-{3-chloro-4-[(3-fluorobenzyl)oxy]phenyl}-3-{2-[4-(pyridin-4-ylmethyl)piperazin-1-yl]ethyl}-4,5-dihydro-3H-pyrimido[5′,4′:4,5]thieno[2,3-e]indazol-6-amine], the values for the IC50 in test [1] and in test [2] were ≤ 50 µM and ≤ 1 µM, respectively.

As to `OCCNCCn1ncc2c1CCc1c-2sc2ncnc(Nc3ccc(OCc4cccc(F)c4)c(Cl)c3)c12` [Example 264, 2-({2-[6-({3-chloro-4-[(3-fluorobenzyl)oxy]phenyl}amino)-4,5-dihydro-3H-pyrimido[5′,4′:4,5]thieno[2,3-e]indazol-3-yl]ethyl}amino)ethanol], the figures for the IC50 in test [1] and in test [2] were ≤ 50 µM and ≤ 1 µM, respectively.

On to `COCCN1CCN(CCn2ncc3c2CCc2c-3sc3ncnc(Nc4ccc(OCc5cccc(F)c5)c(Cl)c4)c23)CC1` [Example 265, N-{3-chloro-4-[(3-fluorobenzyl)oxy]phenyl}-3-{2-[4-(2-methoxyethyl)piperazin-1-yl]ethyl}-4,5-dihydro-3H-pyrimido[5′,4′:4,5]thieno[2,3-e]indazol-6-amine trifluoroacetate], for which the IC50 in test [1] is ≤ 50 µM; in test [2], ≤ 1 µM.

For `Fc1cccc(COc2ccc(Nc3ncnc4sc5c(c34)CCc3c-5cnn3CCN3CCCCC3)cc2Cl)c1` [Example 266, trifluoroacetate], the IC50 is ≤ 5 µM in test [1] and ≤ 1 µM in test [2].

Turning to `CN(C)C1CCN(CCn2ncc3c2CCc2c-3sc3ncnc(Nc4ccc(OCc5cccc(F)c5)c(Cl)c4)c23)C1` (centres unmarked) [Example 267, N-{3-chloro-4-[(3-fluorobenzyl)oxy]phenyl}-3-{2-[3-(dimethylamino)pyrrolidin-1-yl]ethyl}-4,5-dihydro-3H-pyrimido[5′,4′:4,5]thieno[2,3-e]indazol-6-amine trifluoroacetate], the results for the IC50 in test [1] and in test [2] were ≤ 5 µM and ≤ 1 µM, respectively.

As for `OCCCn1ncc2c1CCc1c-2sc2ncnc(Nc3ccc(OCc4cccc(F)c4)c(Cl)c3)c12` [Example 268, 3-[6-({3-chloro-4-[(3-fluorobenzyl)oxy]phenyl}amino)-4,5-dihydro-3H-pyrimido[5′,4′:4,5]thieno[2,3-e]indazol-3-yl]propan-1-ol], the IC50 in test [1] is ≤ 50 µM; in test [2] it was ≤ 1 µM.

For `CN1CCN(CCCn2ncc3c2CCc2c-3sc3ncnc(Nc4ccc(OCc5cccc(F)c5)c(Cl)c4)c23)CC1` [Example 269, N-{3-chloro-4-[(3-fluorobenzyl)oxy]phenyl}-3-[3-(4-methylpiperazin-1-yl)propyl]-4,5-dihydro-3H-pyrimido[5′,4′:4,5]thieno[2,3-e]indazol-6-amine], the figures for the IC50 in test [1] and in test [2] were ≤ 5 µM and ≤ 1 µM, respectively.

Take `COCCN(C)CCCn1ncc2c1CCc1c-2sc2ncnc(Nc3ccc(OCc4cccc(F)c4)c(Cl)c3)c12` [Example 270, N-{3-chloro-4-[(3-fluorobenzyl)oxy]phenyl}-3-{3-[(2-methoxyethyl)(methyl)amino]propyl}-4,5-dihydro-3H-pyrimido[5′,4′:4,5]thieno[2,3-e]indazol-6-amine]: the IC50 in test [1] is ≤ 50 µM; in test [2] it was ≤ 1 µM.

Consider `Fc1cccc(COc2ccc(Nc3ncnc4sc5c(c34)CCc3c-5cnn3CCCN3CCOCC3)cc2Cl)c1` [Example 271, N-{3-chloro-4-[(3-fluorobenzyl)oxy]phenyl}-3-(3-morpholin-4-ylpropyl)-4,5-dihydro-3H-pyrimido[5′,4′:4,5]thieno[2,3-e]indazol-6-amine], for which the values for the IC50 in test [1] and in test [2] were ≤ 50 µM and ≤ 1 µM, respectively.

`Fc1cccc(COc2ccc(Nc3ncnc4sc5c(c34)CCc3c-5cnn3CCCN3CCCC3)cc2Cl)c1` [Example 272]: the results for the IC50 in test [1] and in test [2] were ≤ 5 µM and ≤ 1 µM, respectively.

With `Fc1cccc(COc2ccc(Nc3ncnc4sc5c(c34)CCc3c-5cnn3CCCN3CCCCC3)cc2Cl)c1` [Example 273], the IC50 in test [1] is ≤ 5 µM; in test [2] it was ≤ 1 µM.

Consider `OCCn1cc2c(n1)CCc1c-2sc2ncnc(Nc3ccc4c(cnn4Cc4cccc(F)c4)c3)c12` [Example 275, 2-(6-{[1-(3-fluorobenzyl)-1H-indazol-5-yl]amino}-4,5-dihydro-2H-pyrimido[5′,4′:4,5]thieno[2,3-e]indazol-2-yl)ethanol], for which the IC50 in test [1] was ≤ 5 µM; in test [2] it was ≤ 1 µM.
